From ChEMBL document CHEMBL4602729, “O-Alkyl Hydroxamates Display Potent and Selective Antileishmanial Activity” (J Med Chem, 2020)
Calls of active or inactive are those of the source. No cut-off for these calls is given here.

What was measured:
Leishmania infantum [1] = test: Antileishmanial activity against Leishmania infantum MON-1 promastigotes infected in BALB/c mouse assessed as reduction in spleen parasite load at 10 mg/kg, ip administered daily for 14 days starting from 28 days post infection using PLGA nanoparticle incorporated compound measured post last dose by Taqman qRT-PCR analysis; type: functional, organism-based
BMDM [2] = test: Cytotoxicity against Swiss mouse BMDM assessed as reduction in cell viability at 3.21 uM measured after 72 hrs using PLGA nanoparticle incorporated compound by tryphan blue assay; type: cell-based
[3] = Toxicity in BALB/c mouse infected with Leishmania infantum MON-1 promastigotes assessed as weight loss at 10 to 25 mg/kg, ip administered daily for 14 days starting from 28 days post infection using gold nanoparticle incorporated compound; type: organism-based; conditions: in vivo
[4] = Sub-acute toxicity in Swiss mouse at 25 to 200 mg/kg administered as for 14 days and measured on day 28; type: organism-based; conditions: in vivo, 336 h
[5] = Cytotoxicity against mouse L929 cells assessed as reduction in cell viability measured after 72 hrs by tryphan blue assay; type: cell-based; conditions: L929 cells
[6] = Toxicity in BALB/c mouse infected with Leishmania infantum MON-1 promastigotes assessed as histological changes at 10 to 25 mg/kg, ip administered daily for 14 days starting from 28 days post infection using PLGA nanoparticle incorporated compound; type: organism-based; conditions: in vivo
Leishmania infantum [7] = test: Antileishmanial activity against Leishmania infantum MON-1 promastigotes assessed as reduction in parasite viability at 100 uM measured after 48 hrs by MTT assay; type: functional, organism-based
Leishmania infantum [8] = test: Antileishmanial activity against Leishmania infantum MON-1 promastigotes infected in BALB/c mouse assessed as reduction in spleen parasite load at 10 mg/kg, ip administered daily for 14 days starting from 28 days post infection using gold nanoparticle incorporated compound measured post last dose by Taqman qRT-PCR analysis relative to control; type: functional; parameters: scale not given: the % may be the effect or the level left
Leishmania infantum [9] = test: Antileishmanial activity against Leishmania infantum MON-1 promastigotes infected in BALB/c mouse assessed as reduction in spleen parasite load at 25 mg/kg, ip administered daily for 14 days starting from 28 days post infection using gold nanoparticle incorporated compound measured post last dose by Taqman qRT-PCR analysis relative to control; type: functional; parameters: scale not given: the % may be the effect or the level left
[10] = Toxicity in BALB/c mouse infected with Leishmania infantum MON-1 promastigotes assessed as enzymatic alteration in plasma at 10 to 25 mg/kg, ip administered daily for 14 days starting from 28 days post infection using PLGA nanoparticle incorporated compound; type: organism-based; conditions: in vivo
[11] = Solubility of the compound in plasma (unknown origin); type: ADME, cell-free
Leishmania infantum [12] = test: Antileishmanial activity against Leishmania infantum MON-1 promastigotes infected in BALB/c mouse assessed as reduction in spleen parasite load at 25 mg/kg, ip administered daily for 14 days starting from 28 days post infection using PLGA nanoparticle incorporated compound measured post last dose by Taqman qRT-PCR analysis relative to control; type: functional; parameters: scale not given: the % may be the effect or the level left
BMDM [13] = test: Cytotoxicity against Swiss mouse BMDM assessed as reduction in cell viability at 14.3 uM measured after 72 hrs using gold nanoparticle incorporated compound by tryphan blue assay; type: cell-based
[14] = Toxicity in BALB/c mouse infected with Leishmania infantum MON-1 promastigotes assessed as biochemical alteration in serum at 10 to 25 mg/kg, ip administered daily for 14 days starting from 28 days post infection using PLGA nanoparticle incorporated compound; type: organism-based; conditions: in vivo
Leishmania infantum [15] = test: Antileishmanial activity against Leishmania infantum MON-1 intracellular amastigotes infected in Swiss mouse BMDM measured after 48 hrs by Giemsa staining based optical microscopic analysis; type: functional, organism-based; conditions: Leishmania infantum, MON-1, BMDM, 48 h
[16] = Toxicity in BALB/c mouse infected with Leishmania infantum MON-1 promastigotes assessed as swelling of liver at 10 to 25 mg/kg, ip administered daily for 14 days starting from 28 days post infection using gold nanoparticle incorporated compound; type: organism-based; conditions: in vivo
Leishmania infantum [17] = test: Antileishmanial activity against Leishmania infantum MON-1 promastigotes infected in BALB/c mouse assessed as reduction in liver parasite load at 5 mg/kg, ip administered daily for 14 days starting from 28 days post infection using gold nanoparticle incorporated compound measured post last dose in presence of meglumine antimoniate by Taqman qRT-PCR analysis relative to control; type: functional; parameters: scale not given: the % may be the effect or the level left
Cytochrome P450 3A4 = Cytochrome P450 3A4 (Homo sapiens, UniProt P08684); test: Inhibition of CYP3A4 in human liver microsomes using testosterone as substrate measured after 15 mins by LC-MS/MS analysis; type: ADME
Cytochrome P450 3A4, sequence (P08684 whole entry): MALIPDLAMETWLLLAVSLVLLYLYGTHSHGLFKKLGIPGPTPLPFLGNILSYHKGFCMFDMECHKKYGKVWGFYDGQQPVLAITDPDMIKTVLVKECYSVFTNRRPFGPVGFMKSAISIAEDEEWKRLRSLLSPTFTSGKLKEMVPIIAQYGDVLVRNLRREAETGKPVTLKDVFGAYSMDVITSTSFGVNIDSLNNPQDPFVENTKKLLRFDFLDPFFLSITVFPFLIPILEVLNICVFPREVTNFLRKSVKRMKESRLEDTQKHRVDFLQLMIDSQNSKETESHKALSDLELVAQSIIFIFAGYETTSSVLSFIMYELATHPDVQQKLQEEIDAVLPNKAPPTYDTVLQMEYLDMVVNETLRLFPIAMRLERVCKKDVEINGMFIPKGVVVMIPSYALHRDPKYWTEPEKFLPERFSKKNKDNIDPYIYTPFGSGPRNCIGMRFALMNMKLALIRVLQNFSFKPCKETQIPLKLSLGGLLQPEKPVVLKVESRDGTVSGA

Leishmania infantum [18] = test: Antileishmanial activity against Leishmania infantum MON-1 intracellular amastigotes infected in Swiss mouse BMDM assessed as reduction in parasite load at 3.21 uM measured after 48 hrs using PLGA nanoparticle incorporated compound by Giemsa staining based optical microscopic analysis relative to control; type: functional; parameters: scale not given: the % may be the effect or the level left
[19] = Toxicity in Swiss mouse at 500 mg/kg administered as single dose measured after 28 days; type: organism-based; conditions: in vivo, 672 h
[20] = Toxicity in BALB/c mouse infected with Leishmania infantum MON-1 promastigotes assessed as swelling of kidney at 10 to 25 mg/kg, ip administered daily for 14 days starting from 28 days post infection using PLGA nanoparticle incorporated compound; type: organism-based; conditions: in vivo
Leishmania infantum [21] = test: Antileishmanial activity against Leishmania infantum MON-1 promastigotes infected in BALB/c mouse assessed as reduction in liver parasite load at 10 mg/kg, ip administered daily for 14 days starting from 28 days post infection using PLGA nanoparticle incorporated compound measured post last dose by Taqman qRT-PCR analysis; type: functional, organism-based
[22] = Toxicity in BALB/c mouse infected with Leishmania infantum MON-1 promastigotes assessed as swelling of liver at 10 to 25 mg/kg, ip administered daily for 14 days starting from 28 days post infection using PLGA nanoparticle incorporated compound; type: organism-based; conditions: in vivo
Cytochrome P450 2C9 = Cytochrome P450 2C9 (Homo sapiens, UniProt P11712); test: Inhibition of CYP2C9 in human liver microsomes using diclofenac as substrate measured after 45 mins by LC-MS/MS analysis; type: ADME
Cytochrome P450 2C9, sequence (P11712 whole entry): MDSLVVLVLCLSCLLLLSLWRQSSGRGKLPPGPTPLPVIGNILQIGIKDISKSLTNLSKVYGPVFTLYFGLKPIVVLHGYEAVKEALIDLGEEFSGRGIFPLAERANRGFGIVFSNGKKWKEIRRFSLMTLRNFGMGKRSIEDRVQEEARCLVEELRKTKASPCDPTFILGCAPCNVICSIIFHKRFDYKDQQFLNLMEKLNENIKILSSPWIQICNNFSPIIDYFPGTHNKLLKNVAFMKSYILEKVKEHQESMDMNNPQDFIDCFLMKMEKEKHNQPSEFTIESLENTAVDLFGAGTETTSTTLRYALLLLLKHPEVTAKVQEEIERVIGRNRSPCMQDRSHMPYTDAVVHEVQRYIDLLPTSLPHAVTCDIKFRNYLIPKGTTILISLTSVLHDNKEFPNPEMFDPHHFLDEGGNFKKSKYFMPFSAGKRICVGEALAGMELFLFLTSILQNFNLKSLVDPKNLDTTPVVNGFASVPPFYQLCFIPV

[23] = Toxicity in BALB/c mouse infected with Leishmania infantum MON-1 promastigotes assessed as enzymatic alteration in plasma at 10 to 25 mg/kg, ip administered daily for 14 days starting from 28 days post infection using gold nanoparticle incorporated compound; type: organism-based; conditions: in vivo
Leishmania infantum [24] = test: Antileishmanial activity against Leishmania infantum MON-1 promastigotes infected in BALB/c mouse assessed as reduction in liver parasite load at 25 mg/kg, ip administered daily for 14 days starting from 28 days post infection using PLGA nanoparticle incorporated compound measured post last dose by Taqman qRT-PCR analysis relative to control; type: functional; parameters: scale not given: the % may be the effect or the level left
[25] = Toxicity in BALB/c mouse infected with Leishmania infantum MON-1 promastigotes assessed as biochemical alteration in serum at 10 to 25 mg/kg, ip administered daily for 14 days starting from 28 days post infection using gold nanoparticle incorporated compound; type: organism-based; conditions: in vivo
Leishmania tropica = test: Antileishmanial activity against Leishmania tropica MON-102 intracellular amastigotes; type: functional, organism-based; conditions: Leishmania tropica, MON-102
[26] = Mutagenicity in Salmonella typhimurium TA98 at 10 to 75 uM measured after 5 days in presence of S9 fraction by Ames test; type: toxicity, subcellular; conditions: salmonella enterica subsp. enterica serovar typhimurium, s9, 120 h
[27] = Drug metabolism in human liver microsomes assessed as N-oxidation of amide moiety by measuring compound 14 formation at 1 uM measured up to 60 mins by LC-MS/MS analysis; type: ADME, Microsome; conditions: 1 h
Leishmania donovani = test: Antileishmanial activity against Leishmania donovani MON-2 intracellular amastigotes; type: functional, organism-based; conditions: Leishmania donovani, MON-2

O=C(CCCCCCC(=O)Nc1ccccc1)NOC(c1ccccc1)(c1ccccc1)c1ccccc1
Activity (Leishmania infantum [1]): inactive | Activity (BMDM [2]): Non-Toxic | Activity [3]: Non-Toxic | Activity [4]: Non-Toxic | CC50 at 72 h [5]: > 100000 nM | Activity [6]: Non-Toxic | Activity (Leishmania infantum [7]): inactive | Activity (Leishmania infantum [8]): 86% | Activity (Leishmania infantum [9]): 96% | Activity [10]: Non-Toxic | solubility [11]: Insoluble | Activity (Leishmania infantum [12]): 70% | Activity (BMDM [13]): Non-Toxic | Activity [14]: Non-Toxic | IC50 (Leishmania infantum [15]): 3210 nM | Activity [16]: Non-Toxic | Activity (Leishmania infantum [17]): 98% | IC50 (Cytochrome P450 3A4): 5560 nM | Activity (Leishmania infantum [18]): 54% | Activity [19]: Non-Toxic | Activity [20]: Non-Toxic | Activity (Leishmania infantum [21]): inactive | Activity [22]: Non-Toxic | IC50 (Cytochrome P450 2C9): 2520 nM | Activity [23]: Non-Toxic | Activity (Leishmania infantum [24]): 60% | Activity [25]: Non-Toxic | IC50 (Leishmania tropica): 710 nM | Activity [26]: Non-Toxic | Drug metabolism [27]: Metabolite_Detected | IC50 (Leishmania donovani): 2910 nM
